Experimental data reported in PubChem BioAssay (NCI).
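Following 48 hours of exposure in 96-well plates, responses at five concentrations were used to interpolate endpoints linearly. The concentration for full growth arrest is given as TGI.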

Legend:
Test in all cases: growth of human tumour cells (NCI), 48 h
[1] = system: HOP-92 NSCLC
[2] = system: HT29 colon
[3] = system: SF-539 CNS
[4] = system: NCI-H23 lung
[5] = system: LOX IMVI melanoma
[6] = system: LXFL 529 NSCLC
[7] = system: NCI-H226 lung
[8] = system: SN12C renal
[9] = system: SF-295 CNS
[10] = system: HCT-15 colon
[11] = system: OVCAR-5 ovarian
[12] = system: SNB-19 CNS
[13] = system: NCI-H522 lung
[14] = system: NCI-H460 lung
[15] = system: DLD-1 colon
[16] = system: DMS 114 small cell lung
[17] = system: UACC-257 melanoma
[18] = system: RPMI-8226 leukemia
[19] = system: MOLT-4 leukemia
[20] = system: SK-MEL-2 melanoma
[21] = system: SK-OV-3 ovarian
[22] = system: COLO 205 colon
[23] = system: K-562 leukemia
[24] = system: ACHN renal
[25] = system: UACC-62 melanoma
[26] = system: OVCAR-8 ovarian
[27] = system: OVCAR-4 ovarian
[28] = system: A549 NSCLC
[29] = system: EKVX NSCLC
[30] = system: HCT-116 colon
[31] = system: KM12 colon
[32] = system: SNB-78 CNS
[33] = system: U251 CNS
[34] = system: MALME-3M melanoma
[35] = system: SW-620 colon
[36] = system: SK-MEL-5 melanoma
[37] = system: CAKI-1 renal
[38] = system: IGROV1 ovarian
[39] = system: SK-MEL-28 melanoma
[40] = system: UO-31 renal
[41] = system: SF-268 CNS
[42] = system: RXF 393 renal
[43] = system: CCRF-CEM leukemia
[44] = system: A498 renal

Q: With COc1cc(/C=N/N=C(\N)NO)ccc1O as the compound, how does the TGI [1] read?
A: Its TGI is greater than 100 µM.

Q: And the TGI [2]?
A: The TGI was greater than 100 µM.

Q: What about the TGI [3] of the same compound?
A: Its TGI is greater than 100 µM.

Q: And the TGI [4]?
A: Its TGI is greater than 100 µM.

Q: What about the TGI [5] of the same compound?
A: Its TGI is greater than 100 µM.

Q: And the TGI [6]?
A: Its TGI is greater than 100 µM.

Q: What about the TGI [7] of the same compound?
A: The TGI was 85.9 µM.

Q: What about the TGI [8] of the same compound?
A: Its TGI is greater than 100 µM.

Q: And the TGI [9]?
A: Its TGI is greater than 100 µM.

Q: What about the TGI [10] of the same compound?
A: The TGI was greater than 100 µM.

Q: What about the TGI [11] of the same compound?
A: The TGI was 90.3 µM.

Q: And the TGI [12]?
A: Its TGI is greater than 100 µM.

Q: What about the TGI [13] of the same compound?
A: The TGI was greater than 100 µM.

Q: What about the TGI [14] of the same compound?
A: Its TGI is greater than 100 µM.

Q: And the TGI [15]?
A: Its TGI is greater than 100 µM.

Q: What about the TGI [16] of the same compound?
A: Its TGI is greater than 100 µM.

Q: And the TGI [17]?
A: Its TGI is greater than 100 µM.

Q: What about the TGI [18] of the same compound?
A: The TGI was greater than 100 µM.

Q: And the TGI [19]?
A: Its TGI is greater than 100 µM.

Q: And the TGI [20]?
A: The TGI was greater than 100 µM.

Q: What about the TGI [21] of the same compound?
A: The TGI was greater than 100 µM.

Q: What about the TGI [22] of the same compound?
A: Its TGI is greater than 100 µM.

Q: And the TGI [23]?
A: The TGI was greater than 100 µM.

Q: And the TGI [24]?
A: Its TGI is greater than 100 µM.

Q: What about the TGI [25] of the same compound?
A: The TGI was greater than 100 µM.

Q: And the TGI [26]?
A: The TGI was greater than 100 µM.

Q: And the TGI [27]?
A: Its TGI is greater than 100 µM.

Q: What about the TGI [28] of the same compound?
A: Its TGI is greater than 100 µM.

Q: What about the TGI [29] of the same compound?
A: Its TGI is greater than 100 µM.

Q: And the TGI [30]?
A: Its TGI is greater than 100 µM.

Q: And the TGI [31]?
A: The TGI was greater than 100 µM.

Q: What about the TGI [32] of the same compound?
A: Its TGI is greater than 100 µM.

Q: And the TGI [33]?
A: The TGI was greater than 100 µM.

Q: And the TGI [34]?
A: Its TGI is greater than 100 µM.

Q: What about the TGI [35] of the same compound?
A: Its TGI is greater than 100 µM.

Q: And the TGI [36]?
A: The TGI was greater than 100 µM.

Q: And the TGI [37]?
A: The TGI was greater than 100 µM.

Q: And the TGI [38]?
A: Its TGI is greater than 100 µM.

Q: And the TGI [39]?
A: The TGI was greater than 100 µM.

Q: What about the TGI [40] of the same compound?
A: Its TGI is greater than 100 µM.

Q: What about the TGI [41] of the same compound?
A: Its TGI is greater than 100 µM.

Q: And the TGI [42]?
A: Its TGI is greater than 100 µM.

Q: And the TGI [43]?
A: The TGI was greater than 100 µM.

Q: What about the TGI [44] of the same compound?
A: The TGI was greater than 100 µM.
